The record followed here is patent US11040981B2, “Pyrrolotriazine compounds and methods of inhibiting TAM kinases” (Syros Pharmaceuticals, Inc., priority 2017, dated 2021).

SMILES strings stand for the structures.

The test system of the experiment is colon carcinoma CT-26 cells. As to the kind of experiment: CT-26 syngeneic tumor growth inhibition, alone or with anti-PD1 antibody. It counts as in vivo, Balb/c female mice. As to conditions: Compound 124 100 mg/kg oral twice daily combined with anti-PD1 antibody (clone RMP1-14) 10 mg/kg IP biweekly; compared with either agent as monotherapy; FIG. 3. As for the experimental part: BLAB/c syngeneic mice challenged with colon carcinoma CT-26 cells were used to test the tumor growth inhibitory activity of Compound 124 and an anti-PD1 antibody alone or in combination. CT-26 tumor cells were maintained in vitro as a monolayer culture in RPMI-1640 medium supplemented with 10% heat inactivated fetal bovine serum, 100 U/ml penicillin and 100 μg/ml streptomycin at 37° C. in an atmosphere of 5% CO2 in air. The tumor cells were routinely subcultured twice weekly by trypsin-EDTA treatment. The cells growing in an exponential growth phase were harvested and counted for tumor inoculation. […]
Mice (8 for each regimen) were dosed with one of the following regimens: (1) twice daily oral dosing with 100 mg/kg of Compound 124; (2) biweekly IP injections with 10 mg/kg of anti-PD1 antibody (clone RMP1-14); (3) a combination of twice daily Compound 124 (100 mg/kg) and biweekly anti-PD1 antibody (10 mg/kg) or (4) an orally dosed vehicle control. Subcutaneous tumor volumes were measured three times per week starting at three days post-first dosing using caliper measurements in 2 dimensions (looking down at the tumor, using the calipers to make 2 diameter measurements at right angles to each other). The tumor volume was then calculated using the following standard formula: Tumor Volume=0.5*A*B^2, wherein A=longest diameter of the tumor; and B=shortest diameter of the tumor.

Consider `COC[C@H](C)Nc1ncc2c(-c3ccc(CN4CCN(C)CC4)cc3)cc([C@H]3CC[C@H](O)CC3)n2n1` (single isomer, unassigned) [Compound 124], for which the “tumor growth (subcutaneous tumor volume)” value is reported as “slower tumor growth”.
